Test results reported in patent US10028506B2, “Plant strengthener comprising a tocopherol and a boron compound” (COMPO EXPERT GMBH, priority 2013, dated 2018).

Key:
Type in all cases: in vivo
[1] = tested on: sweet cherry (variety Hedelfinger) inflorescences, severed branches; assay: Frost protection activity on sweet cherry inflorescences in frost chamber; conditions: dilute aqueous preparation (0.25 kg/ha), −2° C. for 4 hours
Experimental: (§1) For the following studies, tocopherol-comprising formulations were diluted with water to give a tocopherol concentration of 0.25% by weight.
(§2) Boroethanolamine was diluted with water to give a concentration of 0.25% by weight.
(§3) Freshly severed branches with 20 to 50 inflorescences (inflorescence stage BBCH 60-69) were used for studying the protection of inflorescences. The twigs were sprayed to runoff point with the aqueous dilution of the respective formulation, using a hand-held sprayer.
(§4) The tests of the formulations in respect of their frost protectant activity were carried out under controlled conditions in frost chambers with fruit-tree inflorescences (apple (variety Elstar), severed branches, sweet cherry (variety Hedelfinger), severed branches).
(§5) The fruit trees were treated 24 hours before the frost event by spraying the inflorescences with the dilute formulation.
(§6) (b) Treatment with formulation FV1 (0.25 g/l tocopherol),
(§7) (c) Treatment with formulation F1 (0.25 g/l tocopherol)+0.25 g/l boroethanolamine).
(§8) The branches were severed from the plant shortly before the test and then exposed to a temperature of −2° C. for a defined period (4 hours). On the following day, the relative number of the inflorescences with frost damage was determined visually. Damage was considered to be browning of the floral tissue (pedicel and ovaries).

[2] = tested on: apple (variety Elstar) inflorescences, severed branches; assay: Frost protection activity on apple inflorescences in frost chamber; conditions: dilute aqueous preparation (0.25 kg/ha), −2° C. for 4 hours
Experimental: as §1, §2, §3, §4, §5, §6, §7, §8

[3] = tested on: apple trees cv. "Granny Smith" fruits; assay: Protection against sun-scorch, field experiments on apples; conditions: dilute aqueous preparation (0.25 kg/ha); apples field experiment
Experimental: For the field experiments, the formulations were diluted with tap water in an amount of 100 l per kg of formulation. The plants were sprayed with the aqueous dilution with the aid of a commercially available plant protection sprayer at an application rate of 0.25 kg tocopherol/ha. The study was carried out in an apple plantation in South Africa (Somerset-West region) in February. To this end, apple trees cv. “Granny Smith” were sprayed with an aqueous dilution of formulation F2 or formulation FV2 8 days before the harvest in two adjacent plots, in parallel experiments. The controls used were in each case untreated trees of the same plot. To determine the damage, in each case approximately 30 fruits were harvested from each tree of the treated trees and of the untreated trees and then observed. The proportion of damaged fruits of the treated trees and of the untreated trees of the respective experiment was determined, and the percentage reduction in damage was determined on this basis. Damage was considered to be reddish and brownish discolorations of the fruit skin.

[4] = tested on: tangerine trees cv. "satsuma" fruits; assay: Protection against sun-scorch, field experiments on tangerines (satsumas); conditions: dilute aqueous preparation (0.25 kg/ha); tangerines field experiment
Experimental: For the field experiments, the formulations were diluted with tap water in an amount of 100 l per kg of formulation. The plants were sprayed with the aqueous dilution with the aid of a commercially available plant protection sprayer at an application rate of 0.25 kg tocopherol/ha. The study was carried out in a fruit plantation in South Africa (Western Cape region, Simondium) in February. To this end, tangerine trees cv. “satsuma” were sprayed with an aqueous dilution of formulation F2 or formulation FV2 6 days before the harvest in two adjacent plots, in parallel experiments. The controls used were in each case untreated trees of the same plot. To determine the damage, in each case approximately 30 fruits were harvested from each tree of the treated trees and of the untreated trees and then observed. The proportion of damaged fruits of the treated trees and of the untreated trees of the respective experiment was determined, and the percentage reduction in damage was determined on this basis. Damage was considered to be yellowish discolorations of the green fruit skin.

NCCOB(O)O [boroethanolamine]
no significant change over the control: change in frost damage over the control [1] | change in frost damage over the control [2] | change in sun-scorch damage over the control [3] | change in sun-scorch damage over the control [4]
